Measured values published in US4390540A, “Imidazoquinazolines having pharmaceutical activity” (Hoffmann-La Roche Inc., priority 1980, dated 1983).
Like-named read-outs stand apart in the source and are kept apart here.

How the values were obtained:
[1] = tested on: left ventricular pressure (LVP); assay: Positive inotropic activity (dLVP/dtmax) in conscious sheep dogs; assay type: in vivo; settings: oral; for change in vivo at 3 mg/kg / change in vivo at 1 mg/kg / change in vivo at 10 mg/kg: Canis lupus familiaris, read-out: Inotropy Δ% (percentage variation of dLVP/dtmax)
Protocol: (§1) The positive inotropic activity was measured after the oral administration of the test substances to conscious sheep dogs. For this purpose, the animals are provided with an implanted pressure-telemetry system, whereby the pressure receiver is fixed in the left ventricle. The left ventricular pressure is sent from the animal via the implanted radio transmitter and received via a suitable antenna and receiving system, demodulated and amplified. By differentiation of the ascending side of the left ventricular pressure (LVP), there is calculated the maximum pressure increase rate (dLVP/dtmax) which represents the contractility parameter. Simultaneously, the heart frequency is recorded via a cardiotachograph. Under inotropy there are indicated the percentage variation (Δ%) of dLVP/dtmax and the duration of activity in hours (Hrs.). Under tachycardia there are indicated the percentage variations of the heart frequency (Δ%) after administration of the test substance and the duration of activity in hours (Hrs.).

heart frequency = assay: Heart frequency (tachycardia) in conscious sheep dogs; assay type: in vivo; settings: oral
Protocol: as §1

[2] = tested on: Human platelet-rich plasma; assay: Collagen-induced blood platelet aggregation (aggregometer method of Born); assay type: cell-based; settings: 10 min; human platelet-rich citrate plasma, 37° C., 10 minutes incubation, collagen fibrils; read-out: EC50 (collagen-induced blood platelet aggregation, maximum aggregation velocity)
Protocol: The maximum aggregation velocity was taken as the test parameter, and the effective concentration (EC50) was ascertained from dosage-activity curves. Human platelet-rich plasma was obtained by centrifugation from citrated venous blood. The experiments were carried out with suspensions of the test substances in 0.9% sodium chloride. 0.18 ml of citrate plasma was treated with a 10 μl suspension of the test compounds and incubated at 37° C. for 10 minutes, whereupon the aggregation was initiated by the addition of 10 μl of a suspension of collagen fibrils.

gastric acid secretion = assay: Gastric acid secretion inhibition in pylorus-ligated rats (Shay); assay type: in vivo; settings: Rattus norvegicus, intraduodenally, female rats, 4 hours
Protocol: The experimental procedure described hereinafter was used to determine the gastric acid secretion-inhibiting activity. More specifically, the pylorus of female rats, which had received no food for 24 hours, but which had received water ad libitum, is ligatured under slight ether narcosis in accordance with Shay et al. [Gastroenterology 5, 43 (1945)]. Immediately thereafter the substance to be tested is administered intraduodenally to the animals. Four hous later the animals are killed, the volume and the acidity of their gastric juice are determined and the values obtained are compared with those of control animals which were treated similarly, but which received no test substance. The ED 50 is that dosage of test substance which brings about a 50% decrease in volume (ED 50 volume) or acidity (ED 50 acidity) of the gastric juice in the treated animals compared with the control animals.

Row | Structure (SMILES) | Inotropy Hrs (duration of activity) ([1]; 3 mg/kg) | change in vivo at 3 mg/kg ([1]; 3 mg/kg) | Heart frequency Hrs. (duration of activity) (heart frequency; 3 mg/kg) | Heart frequency Δ% (percentage variation) (heart frequency; 3 mg/kg) | Inotropy Hrs (duration of activity) ([1]; 1 mg/kg) | change in vivo at 1 mg/kg ([1]; 1 mg/kg) | Heart frequency Hrs. (duration of activity) (heart frequency; 1 mg/kg) | Heart frequency Δ% (percentage variation) (heart frequency; 1 mg/kg) | Inotropy Hrs (duration of activity) ([1]; 10 mg/kg) | change in vivo at 10 mg/kg ([1]; 10 mg/kg) | Heart frequency Hrs. (duration of activity) (heart frequency; 10 mg/kg) | Heart frequency Δ% (percentage variation) (heart frequency; 10 mg/kg) | EC50 [2] | ED50 (gastric acid secretion; read-out: ED 50 acidity (50% decrease in acidity of the gastric juice)) | ED50 (gastric acid secretion; read-out: ED 50 volume (50% decrease in volume of the gastric juice))
1 | Cl.O=C1CN2C(=N1)NCc1ccccc12 [4,5-dihydroimidazo[1,2-a]quinazolin-2(1H)-one hydrochloride] | 4 h | 79% | 2.5 h | +4% | – | – | – | – | – | – | – | – | – | – | –
2 | CC1C(=O)N=C2NCc3c(ccc(Cl)c3Cl)N21.Cl (stereo not shown) [6,7-dichloro-1-methyl-4,5-dihydroimidazo[1,2-a]quinazolin-2(1H)-one hydrochloride] | 8 h | 48% | 8 h | +16% | – | – | – | – | – | – | – | – | – | – | –
3 | Cl.O=C1CN2C(=N1)NCc1c2ccc(Cl)c1Cl [6,7-dichloro-4,5-dihydroimidazo[1,2-a]quinazolin-2(1H)-one hydrochloride] | – | – | – | – | 7.5 h | 44% | 7 h | +22% | – | – | – | – | – | – | –
4 | Cc1ccc2c(c1C)CNC1=NC(=O)CN12.Cl [6,7-dimethyl-4,5-dihydroimidazo[1,2-a]quinazolin-2(1H)-one hydrochloride] | – | – | – | – | – | – | – | – | 6 h | 18% | 6 h | +3% | – | – | –
5 | Cl.O=C1CN2C(=N1)NCc1c(Cl)cccc12 [6-chloro-4,5-dihydroimidazo[1,2-a]quinazolin-2(1H)-one hydrochloride] | – | – | – | – | – | – | – | – | 7 h | 78% | 6 h | +77% | 12.3 µM | 10 mg/kg | 15 mg/kg
6 | COc1ccc2c(c1Cl)CNC1=NC(=O)CN12.Cl [6-chloro-7-methoxy-4,5-dihydroimidazo[1,2-a]quinazolin-2(1H)-one hydrochloride] | 7 h | 32% | 6 h | +20% | 1 h | 10% | 5 h | +47% | 7 h | 60% | 7 h | +45% | – | – | –
7 | Cc1cccc2c1CNC1=NC(=O)CN12.Cl [6-methyl-4,5-dihydroimidazo[1,2-a]quinazolin-2(1H)-one hydrochloride] | 4.5 h | 32% | 5 h | -12% | 2 h | 15% | 3.5 h | -7% | – | – | – | – | – | – | –
8 | Cc1c(Br)ccc2c1CNC1=NC(=O)CN12.Cl [7-bromo-6-methyl-4,5-dihydroimidazo[1,2-a]quinazolin-2(1H)-one hydrochloride] | 5.5 h | 16% | 4 h | 0% | 2.5 h | 8% | 4 h | +10% | 8 h | 120% | 8 h | +59% | 35 µM | – | –
9 | Cl.O=C1CN2C(=N1)NCc1cc(Cl)ccc12 [7-chloro-4,5-dihydroimidazo[1,2-a]quinazolin-2(1H)-one hydrochloride] | – | – | – | – | – | – | – | – | 3.5 h | 17% | 3 h | +13% | – | – | –
10 | Cc1c(Cl)ccc2c1CNC1=NC(=O)CN12.Cl [7-chloro-6-methyl-4,5-dihydroimidazo[1,2-a]quinazolin-2(1H)-one hydrochloride] | 1 h | 7% | 3 h | +6% | 6 h | 27% | 5 h | +4% | 6 h | 50% | 6 h | +31% | – | – | –
11 | COc1ccc2c(c1)CNC1=NC(=O)CN12.Cl [7-methoxy-4,5-dihydroimidazo[1,2-a]quinazolin-2(1H)-one hydrochloride] | – | – | – | – | – | – | – | – | 7 h | 67% | 6.5 h | +50% | – | – | –
12 | Cc1ccc2c(c1)CNC1=NC(=O)CN12.Cl [7-methyl-4,5-dihydroimidazo[1,2-a]quinazolin-2(1H)-one hydrochloride] | 2 h | 33% | 1 h | +6% | – | – | – | – | – | – | – | – | – | – | –
13 | Cc1cccc2c1N1CC(=O)N=C1NC2.Cl [9-methyl-4,5-dihydroimidazo[1,2-a]quinazolin-2(1H)-one hydrochloride] | 6.5 h | 18% | 6 h | -8% | 2.5 h | 27% | 5.5 h | -19% | – | – | – | – | – | – | –
